Reference: patent US8163509B2, “Biological markers predictive of anti-cancer response to insulin-like growth factor-1 receptor kinase inhibitors” (The Regents of the University of Colorado, A Body Corporate, priority 2008, dated 2012)

Biological target: T1, IGF1R (Homo sapiens, UniProt P08069)
T1 construct: endogenous in cells; host or cells: HT29 and HCT116 CRC cell lines
Test: Meso Scale Discovery (MSD) assay of phosphorylated IGF1R
Type: cell-based
Conditions: HT29 and HCT116; 72 h; PQIP 0.4 μmol/L, SN38 0.004 μmol/L, Oxaliplatin 1.0 μmol/L
Experimental: Detection of IGF1R using Meso Scale Discovery assays (MSD): HT29 and HCT116 CRC cell lines were seeded into 6-well plates, allowed to attach for 24 hours and exposed to PQIP and chemotherapy (SN38, or Oxaliplatin) alone or in combination for 72 h. Following exposure, cells were rinsed with PBS and scraped into RIPA lysis buffer containing protease inhibitors, EDTA, NaF, and sodium orthovanadate. Total protein was quantified using the BioRad Dc Protein Assay (BioRad, Hercules, Calif.). Fifty micrograms of protein in 25 μL was added per well for MSD detection of phosphorylated IGF-1R according to manufacturer's instructions (Meso Scale Discovery, Gaithersburg, Md.).
Cells were exposed to PQIP (0.4 μmol/L) and chemotherapy (SN38 0.004 μmol/L, or Oxaliplatin 1.0 μmol/L) alone or in combination for 72 h. Protein was extracted and analyzed for phospho/total IGF1R levels using a Meso Scale Discovery (MSD; Gaithersburg, Md. 20877) assay.

T1 sequence (P08069 31-1367): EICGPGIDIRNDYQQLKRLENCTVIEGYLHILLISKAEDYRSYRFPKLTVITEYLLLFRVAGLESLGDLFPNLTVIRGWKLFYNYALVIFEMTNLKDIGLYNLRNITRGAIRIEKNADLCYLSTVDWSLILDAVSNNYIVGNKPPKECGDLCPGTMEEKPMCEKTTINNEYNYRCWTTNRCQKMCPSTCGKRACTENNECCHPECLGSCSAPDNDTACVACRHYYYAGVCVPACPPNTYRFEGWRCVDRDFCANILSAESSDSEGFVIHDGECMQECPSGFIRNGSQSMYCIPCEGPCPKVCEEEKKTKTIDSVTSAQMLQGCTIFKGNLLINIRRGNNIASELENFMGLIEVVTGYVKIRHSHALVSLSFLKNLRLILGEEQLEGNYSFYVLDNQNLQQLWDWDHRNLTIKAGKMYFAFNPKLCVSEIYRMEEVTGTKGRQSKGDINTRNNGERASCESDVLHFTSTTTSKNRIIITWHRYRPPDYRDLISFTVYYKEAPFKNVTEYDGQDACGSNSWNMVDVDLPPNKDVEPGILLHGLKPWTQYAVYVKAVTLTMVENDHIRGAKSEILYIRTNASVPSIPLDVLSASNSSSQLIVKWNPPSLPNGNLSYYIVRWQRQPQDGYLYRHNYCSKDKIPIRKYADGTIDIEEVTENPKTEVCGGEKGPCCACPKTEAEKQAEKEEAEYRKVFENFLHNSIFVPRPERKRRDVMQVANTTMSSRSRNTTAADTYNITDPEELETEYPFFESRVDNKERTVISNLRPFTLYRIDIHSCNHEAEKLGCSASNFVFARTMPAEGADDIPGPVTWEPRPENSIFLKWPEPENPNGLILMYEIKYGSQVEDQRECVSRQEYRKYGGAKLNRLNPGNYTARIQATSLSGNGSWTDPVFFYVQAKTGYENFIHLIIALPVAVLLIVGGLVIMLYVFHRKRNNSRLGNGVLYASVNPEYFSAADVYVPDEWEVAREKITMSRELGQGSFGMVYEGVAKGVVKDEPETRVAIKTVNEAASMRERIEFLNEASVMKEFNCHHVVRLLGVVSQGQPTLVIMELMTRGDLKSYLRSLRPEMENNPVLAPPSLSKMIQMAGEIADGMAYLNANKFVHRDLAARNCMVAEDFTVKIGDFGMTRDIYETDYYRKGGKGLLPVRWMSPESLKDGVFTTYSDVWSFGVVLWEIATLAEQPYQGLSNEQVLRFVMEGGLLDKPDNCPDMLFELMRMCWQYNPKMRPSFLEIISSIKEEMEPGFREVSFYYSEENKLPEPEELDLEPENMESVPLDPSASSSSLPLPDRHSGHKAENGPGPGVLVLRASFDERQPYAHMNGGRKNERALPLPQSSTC

SMILES | effect on phosphorylated IGF1R, agent alone
CCc1c2c(nc3ccc(O)cc13)-c1cc3c(c(=O)n1C2)COC(=O)[C@]3(O)CC [SN38, 7-Ethyl-10-hydroxy-camptothecin, reference compound] | no significant effect
O=C1[O][Pt]2([NH][C@@H]3CCCC[C@H]3[NH]2)[O]C1=O [Oxaliplatin, reference compound] | no significant effect
